Experimental data from patent US3960833A, “Butirosin A 3",5"-O-isopropylidene derivatives” (Bristol-Myers Company, priority 1975, dated 1976).
≈ marks a conversion by molar mass, not a printed value.

Assays:
Experiment in all cases: MIC by Steers agar-dilution method on Mueller-Hinton medium
Format in all cases: cell-based
S. aureus Smith = conditions: Staphylococcus aureus
Text: (§1) Illustrated below is a table showing the minimal inhibitory concentrations (MIC's) of butirosin A, 4'-deoxybutirosin A and compound 11 (BB-K186) against a variety of gram-positive and gram-negativebacteria as obtained by the Steers agar-dilution method on Mueller-Hinton medium.

E. coli A20732 = conditions: Escherichia coli, A20732
Text: as §1

S. aureus D133 = conditions: Staphylococcus aureus, D133
Text: as §1

Ser. marcescens A21247 = conditions: Serratia marcescens, A21247
Text: as §1

E. coli R5 = conditions: Escherichia coli, R5
Text: as §1

S. aureus D193 = conditions: Staphylococcus aureus, D193
Text: as §1

E. coli PO1495 = conditions: Escherichia coli
Text: as §1

S. aureus A20239 = conditions: Staphylococcus aureus, A20239
Text: as §1

Ps. aeruginosa A20635 = conditions: Pseudomonas aeruginosa, A20635
Text: as §1

Ps. aeruginosa A20896 = conditions: Pseudomonas aeruginosa, A20896
Text: as §1

E. coli NR79/W677 = conditions: Escherichia coli
Text: as §1

Pr. mirabilis A9554 = conditions: Proteus mirabilis, A9554
Text: as §1

Pseudomonas sp. A20621 = conditions: Pseudomonas, SP.A20621
Text: as §1

Ps. aeruginosa A20601 = conditions: Pseudomonas aeruginosa, A20601
Text: as §1

Ent. cloacae A20364 = conditions: Enterobacter cloacae, A20364
Text: as §1

Ent. cloacae A21006 = conditions: Enterobacter cloacae, A21006
Text: as §1

E. coli A20107 = conditions: Escherichia coli, A20107
Text: as §1

Ps. aeruginosa GN-315 = conditions: Pseudomonas aeruginosa, GN315
Text: as §1

Ser. marcescens A20019 = conditions: Serratia marcescens, A20019
Text: as §1

E. coli JR66/W677 = conditions: Escherichia coli
Text: as §1

Prov. stuartii A20894 = conditions: Providencia stuartii, A20894
Text: as §1

Pr. vulgaris A9436 = conditions: Proteus vulgaris, A9436
Text: as §1

E. coli NIHJ = conditions: Escherichia coli
Text: as §1

E. coli JR35/C600 = conditions: Escherichia coli
Text: as §1

E. coli ML1630 = conditions: Escherichia coli, ML1630
Text: as §1

S. aureus D137 = conditions: Staphylococcus aureus, D137
Text: as §1

K. pneumoniae 22-3038 = conditions: Klebsiella pneumoniae, 223038
Text: as §1

E. coli A20895 = conditions: Escherichia coli, A20895
Text: as §1

Ps. aeruginosa No. 130 = conditions: Pseudomonas aeruginosa, NO.130
Text: as §1

Ps. aeruginosa A9930 = conditions: Pseudomonas aeruginosa, A9930
Text: as §1

K. pneumoniae D11 = conditions: Klebsiella pneumoniae, D11
Text: as §1

Pr. morganii A20031 = conditions: Morganella morganii, A20031
Text: as §1

Which results are given for `NCC[C@H](O)C(=O)N[C@@H]1C[C@H](N)[C@@H](O[C@H]2O[C@H](CN)[C@@H](O)[C@H](O)[C@H]2N)[C@H](O[C@@H]2O[C@H](CO)[C@H](O)[C@H]2O)[C@H]1O` [Bu-1709A1, butirosin A]?
MIC (S. aureus Smith): 0.8 µg/mL (≈ 1.44 µM); MIC (E. coli A20732): 1.6 µg/mL (≈ 2.88 µM); MIC (S. aureus D133): 6.3 µg/mL (≈ 11.3 µM); MIC (Ser. marcescens A21247): 6.3 µg/mL (≈ 11.3 µM); MIC (E. coli R5): 3.1 µg/mL (≈ 5.58 µM); MIC (S. aureus D193): 3.1 µg/mL (≈ 5.58 µM); MIC (E. coli PO1495): 1.6 µg/mL (≈ 2.88 µM); MIC (S. aureus A20239): 25 µg/mL (≈ 45 µM); MIC (Ps. aeruginosa A20635): > 100 µg/mL; MIC (Ps. aeruginosa A20896): > 100 µg/mL; MIC (E. coli NR79/W677): > 100 µg/mL; MIC (Pr. mirabilis A9554): 1.6 µg/mL (≈ 2.88 µM); MIC (Pseudomonas sp. A20621): 100 µg/mL (≈ 180 µM); MIC (Ps. aeruginosa A20601): 50 µg/mL (≈ 90 µM); MIC (Ent. cloacae A20364): 1.6 µg/mL (≈ 2.88 µM); MIC (Ent. cloacae A21006): > 100 µg/mL; MIC (E. coli A20107): 50 µg/mL (≈ 90 µM); MIC (Ps. aeruginosa GN-315): > 100 µg/mL; MIC (Ser. marcescens A20019): 6.3 µg/mL (≈ 11.3 µM); MIC (E. coli JR66/W677): 100 µg/mL (≈ 180 µM); MIC (Prov. stuartii A20894): > 100 µg/mL; MIC (Pr. vulgaris A9436): 0.4 µg/mL (≈ 0.72 µM); MIC (E. coli NIHJ): 1.6 µg/mL (≈ 2.88 µM); MIC (E. coli JR35/C600): 0.8 µg/mL (≈ 1.44 µM); MIC (E. coli ML1630): 3.1 µg/mL (≈ 5.58 µM); MIC (S. aureus D137): 25 µg/mL (≈ 45 µM); MIC (K. pneumoniae 22-3038): > 100 µg/mL; MIC (E. coli A20895): 3.1 µg/mL (≈ 5.58 µM); MIC (Ps. aeruginosa No. 130): 25 µg/mL (≈ 45 µM); MIC (Ps. aeruginosa A9930): 6.3 µg/mL (≈ 11.3 µM); MIC (K. pneumoniae D11): 0.8 µg/mL (≈ 1.44 µM); MIC (Pr. morganii A20031): 1.6 µg/mL (≈ 2.88 µM)
